Consider 1 molecule from patent publication US20090012104A1, “Inhibitors of 5'-Methylthioadenosine Phosphorylase and 5'-Methylthioadenosine/S-Adenosylhomocysteine Nucleosidase” (priority 2004, published 2009).

This assay deals with T1, E. coli MTA/AdoHcy nucleosidase (MTAN) (Escherichia coli, UniProt P0AF12).
T1 construct: hexahistidine; made in house; host or cells: bacterial expression vector
In words: MTAN direct UV spectrophotometric enzyme assay (cleavage of MTA, absorbance at 275 nm). The class given is biochemical. The note with it: initial rates fitted to competitive inhibition; 100-250 μM MTA, 50 mM sodium phosphate pH 7, 0-1 μM inhibitor, 25° C; read-out: Ki (inhibitor constant for the initial rate reactions). How it is done: The gene for E. coli MTA/AdoHcy nucleosidase (MTAN) was amplified and cloned into a bacterial hexahistidine plasmid expression vector. Induced recombinant enzyme was purified by Nickel-chelate chromatography, and dialyzed into 100 mM sodium phosphate buffer, pH 7. Enzyme purity was assessed by SDS-PAGE and concentration assigned using the experimentally determined extinction coefficient (ε280=10480 M^−1cm^−1).
MTAN assays were performed in 1 mL quartz cuvettes using a Perkin Elmer Lambda 35 UV/V is spectrometer outfitted with KinLab and UV WinLab software. This direct UV spectrophotometric assay follows the decrease in absorbance at 275 nm that accompanies the cleavage of MTA to MTR and Ade. (2-(4-Amino-5H-pyrrolo[3,2-d]pyrimidin-7-yl)-5-methyl-sulfanylmethyl-pyrrolidine-3,4-diol) and (2-Amino-4-[5-(4-amino-5H-pyrrolo[3,2-d]pyrimidin-7-yl)-3,4 dihydroxy-pyrrolidin-2-ylmethylsulfanyl]-butyric acid) inhibitor concentrations were assigned using UV absorbance and the extinction coefficient of 9-deazaadenine. […] Reactions were initiated by the addition of […] MTAN enzyme to the 1 mL assay mixture, and the change in UV absorbance followed for 20-25 minutes. […] Inhibitor constants for the initial rate reactions (Ki's) were calculated by fitting the results to the equation for competitive inhibition.

SMILES strings stand for the structures.

T1 sequence (P0AF12 whole entry): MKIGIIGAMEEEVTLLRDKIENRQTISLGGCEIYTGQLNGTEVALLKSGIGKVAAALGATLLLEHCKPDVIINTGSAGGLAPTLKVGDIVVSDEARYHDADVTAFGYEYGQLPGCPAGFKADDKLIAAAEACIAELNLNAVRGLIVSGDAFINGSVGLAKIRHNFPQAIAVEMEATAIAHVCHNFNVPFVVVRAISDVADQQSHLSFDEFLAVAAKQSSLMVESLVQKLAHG

In general, Ki refers to a dissociation constant, usually derived from enzyme kinetics or from competition with a known ligand. For the molecule `Nc1ncnc2c(C3NC(CSCCC(N)C(=O)O)C(O)C3O)c[nH]c12` (stereo not shown) [2-Amino-4-[5-(4-amino-5H-pyrrolo[3,2-d]pyrimidin-7-yl)-3,4-dihydroxy-pyrrolidin-2-ylmethylsulfanyl]-butyric acid], the Ki was under 10 nM.
